According to patent US12428370B2, “Haloallylamine dual amine oxidase inhibitors” (Syntara Limited, priority 2020, dated 2025):

Assays:
[1] = biological target: T1, human recombinant SSAO/VAP-1 (Homo sapiens, UniProt Q16853); assay: Inhibition of human recombinant SSAO/VAP-1 (Amplex Red fluorometric assay); format: biochemical; conditions: 30 min incubation, 37° C., benzylamine substrate
T1 construct: a cloned cDNA template corresponding to residues 34-763 of human SSAO/VAP-1; TEV cleavage site (N); made in house
T1 sequence (Q16853 34-763): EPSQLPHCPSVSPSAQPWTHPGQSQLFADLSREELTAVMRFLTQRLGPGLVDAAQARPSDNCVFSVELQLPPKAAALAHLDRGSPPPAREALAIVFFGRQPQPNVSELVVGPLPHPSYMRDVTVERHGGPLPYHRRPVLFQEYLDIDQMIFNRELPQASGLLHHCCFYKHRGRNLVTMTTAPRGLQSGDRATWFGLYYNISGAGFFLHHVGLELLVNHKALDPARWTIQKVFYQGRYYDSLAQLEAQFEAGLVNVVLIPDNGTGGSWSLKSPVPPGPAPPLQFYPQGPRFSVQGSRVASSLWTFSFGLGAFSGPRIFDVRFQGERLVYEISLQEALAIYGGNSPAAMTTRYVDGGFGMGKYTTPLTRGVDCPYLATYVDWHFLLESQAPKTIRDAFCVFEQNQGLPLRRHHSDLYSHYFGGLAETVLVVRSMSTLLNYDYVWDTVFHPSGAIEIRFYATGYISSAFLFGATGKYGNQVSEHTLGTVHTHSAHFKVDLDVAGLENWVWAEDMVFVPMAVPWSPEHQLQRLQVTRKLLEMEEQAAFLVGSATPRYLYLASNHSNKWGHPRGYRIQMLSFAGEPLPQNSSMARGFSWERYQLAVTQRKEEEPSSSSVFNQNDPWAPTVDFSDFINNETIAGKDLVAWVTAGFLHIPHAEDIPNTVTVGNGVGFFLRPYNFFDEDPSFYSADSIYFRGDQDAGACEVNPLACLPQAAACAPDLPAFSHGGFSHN
Method: Method to Determine the Ability of Compounds of Formula I to Inhibit Human Recombinant SSAO/VAP-1
Human recombinant SSAO/VAP-1 amine oxidase activity was determined using the method as described for monoamine oxidase, copper-containing amine oxidases and related enzymes (Holt A. and Palcic M., Nat. Protoc. 2006, 1, 2498-2505). Briefly, a cloned cDNA template corresponding to residues 34-763 of human SSAO/VAP-1, and incorporating a mouse Ig kappa (κ) signal sequence, N-terminal flag epitope tag and tobacco etch virus (TEV) cleavage site, was assembled in a mammalian expression vector (pLO-CMV) by Geneart AG. This vector containing human SSAO/VAP-1 residues was transfected into CHO-K1 glycosylation mutant cell line, Lec 8. A clone stably expressing human SSAO/VAP-1 was isolated and cultured in large scale. Active human SSAO/VAP-1 was purified and recovered using immunoaffinity chromatography. This was used as the source for SSAO/VAP-1 activity. A high-throughput colorimetric assay was developed using either 96 or 384 well format. Briefly, in a standard 96 well plate assay 50 μL of purified human SSAO/VAP-1 (0.25 μg/mL) in 0.1 M sodium phosphate buffer (pH 7.4) was added into each well. […] After 30 min incubation, 50 μL of the reaction mixture containing 600 μM benzylamine (Sigma Aldrich), 120 μM Amplex Red (Sigma Aldrich) and 1.5 U/mL horseradish peroxidase (Sigma Aldrich) prepared in 0.1 M sodium phosphate buffer (pH 7.4) were added to the corresponding well. The fluorescence unit (RFU) was read every 2.5 min for 30 min at 37° C. excitation 565 nm and emission 590 nm (Optima; BMG labtech). The slope of the kinetics for each well was calculated using MARS data analysis software (BMG labtech) and this value was used to deduce the IC50 value (Dotmatics).

[2] = biological target: T2, Recombinant human MAO-B (Homo sapiens, UniProt P27338); assay: Inhibition of human recombinant MAO-B; format: biochemical; conditions: incubation time of 2 hours, benzylamine 100 μM
T2 construct: purchased Sigma Aldrich
T2 sequence (P27338 1-520): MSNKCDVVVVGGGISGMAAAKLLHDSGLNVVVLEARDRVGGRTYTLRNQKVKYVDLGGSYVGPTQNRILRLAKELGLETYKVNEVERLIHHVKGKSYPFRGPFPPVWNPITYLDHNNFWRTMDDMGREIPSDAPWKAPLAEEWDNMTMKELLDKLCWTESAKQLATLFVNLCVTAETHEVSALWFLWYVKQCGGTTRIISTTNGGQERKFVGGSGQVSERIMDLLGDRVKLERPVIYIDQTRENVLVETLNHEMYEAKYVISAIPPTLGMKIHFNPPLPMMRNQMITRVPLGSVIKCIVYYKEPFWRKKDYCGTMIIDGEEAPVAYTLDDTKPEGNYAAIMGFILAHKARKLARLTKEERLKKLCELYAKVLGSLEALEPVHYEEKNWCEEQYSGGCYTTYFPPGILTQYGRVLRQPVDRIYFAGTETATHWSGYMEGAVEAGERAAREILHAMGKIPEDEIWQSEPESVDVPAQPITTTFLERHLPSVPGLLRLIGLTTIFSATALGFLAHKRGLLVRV
Method: Method to Determine the Ability of Compounds of Formula I to Inhibit Human Recombinant MAO-B
The ability of the compounds of this invention to inhibit MAO-B activities in vitro was tested. Recombinant human MAO-B (0.06 mg/mL; Sigma Aldrich) was used as source of MAO-B enzyme activities.

[3] = biological target: T3, recombinant human MAO-A (Homo sapiens, UniProt P21397); assay: Inhibition of human recombinant MAO-A; format: biochemical; conditions: incubation time of 2 hours, tyramine 100 μM
T3 construct: purchased Sigma Aldrich
T3 sequence (P21397 1-527): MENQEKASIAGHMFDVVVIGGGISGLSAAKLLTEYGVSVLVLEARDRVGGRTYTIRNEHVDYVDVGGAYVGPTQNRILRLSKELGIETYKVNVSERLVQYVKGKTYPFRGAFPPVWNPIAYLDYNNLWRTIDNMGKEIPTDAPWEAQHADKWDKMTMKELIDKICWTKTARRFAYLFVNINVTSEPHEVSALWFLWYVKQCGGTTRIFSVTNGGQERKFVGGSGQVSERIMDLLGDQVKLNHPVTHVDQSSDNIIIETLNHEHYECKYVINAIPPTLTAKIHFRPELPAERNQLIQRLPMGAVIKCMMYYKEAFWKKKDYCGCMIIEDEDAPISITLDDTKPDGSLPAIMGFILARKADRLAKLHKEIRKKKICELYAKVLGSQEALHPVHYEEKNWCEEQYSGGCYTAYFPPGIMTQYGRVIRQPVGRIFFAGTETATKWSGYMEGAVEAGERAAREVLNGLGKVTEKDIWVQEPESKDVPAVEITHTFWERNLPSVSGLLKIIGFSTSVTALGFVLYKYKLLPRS
Method: Method to Determine the Ability of Compounds of Formula I to Inhibit Human Recombinant MAO-A
The selectivity of the compounds of this invention was tested by determining their ability to inhibit MAO-A activity in vitro, using recombinant human MAO-A (0.003 mg/mL; Sigma Aldrich). The assay was performed in a similar way as for human SSAO/VAP-1 (EXAMPLE 9) except, the substrate tyramine was used at 100 μM in place of benzylamine and the assay was run after an incubation time of 2 hours.

[4] = test system: Myogenic cell cultures from both mdx mice and DMD patients; conditions: in vitro; cited from earlier work
[5] = test system: mdx mice; conditions: 3-month old mdx mice, Vitiello L. et al. 2018; cited from earlier work

IC50 [1] [µM] | IC50 [2] [µM] | IC50 [3] [µM] | Structure (SMILES) | susceptibility (sensitivity) to oxidative stress [4] | myofiber damage, oxidative stress and muscle function [5]
< 0.01 | < 0.05 | 0.3 to 3 | N#Cc1cccc(OC/C(=C/F)CN)c1 [Compound 9] |  | 
0.01 to 0.5 | < 0.05 | 0.3 to 3 | NC/C(=C\F)COc1ccccc1 [Compound 10] |  | 
< 0.01 | < 0.05 | 3 to 30 | N#Cc1ccc(OC/C(=C/F)CN)c(F)c1 [Compound 4, (E)-4-((2-(aminomethyl)-3-fluoroallyl)oxy)-3-fluorobenzonitrile] |  | 
> 1 | < 0.05 | < 0.3 | N#Cc1ccccc1OC/C(=C/F)CN [Compound 8] |  | 
< 0.01 | < 0.05 | 3 to 30 | Cc1cc(OC/C(=C/F)CN)ccc1C#N [Compound 5, (E)-4-((2-(aminomethyl)-3-fluoroallyl)oxy)-2-methylbenzonitrile] |  | 
< 0.01 | < 0.05 | > 30 | N#Cc1ccc(OC/C(=C/F)CN)cc1F [Compound 2, (E)-4-((2-(aminomethyl)-3-fluoroallyl)oxy)-2-fluorobenzonitrile] |  | 
0.01 to 0.5 | 0.05 to 0.5 | > 30 | COc1cc(OC/C(=C/F)CN)ccc1C#N [Compound 7] |  | 
< 0.01 | < 0.05 | 0.3 to 3 | N#Cc1ccc(OC/C(=C\F)CN)cc1 [Compound 6] |  | 

Continued, compound first:

Structure (SMILES) | IC50 [1] [µM] | IC50 [2] [µM] | IC50 [3] [µM] | susceptibility (sensitivity) to oxidative stress [4] | myofiber damage, oxidative stress and muscle function [5]
COc1ccc(OC/C(=C\F)CN)cc1 [Compound 14] | < 0.01 | < 0.05 | 0.3 to 3 |  | 
CS(=O)(=O)c1ccc(OC/C(=C/F)CN)cc1 [Compound 12] | < 0.01 | > 1 | > 30 |  | 
N#Cc1ccc(OC/C(=C/F)CN)cc1Br [Compound 3, (E)-4-((2-(aminomethyl)-3-fluoroallyl)oxy)-2-bromobenzonitrile] | < 0.01 | < 0.05 | 3 to 30 |  | 
NC/C(=C\F)COc1ccc(C(F)(F)F)cc1 [Compound 11] | < 0.01 | < 0.05 | 3 to 30 |  | 
C[C@H](NCc1ccc(OCc2cccc(F)c2)cc1)C(N)=O [safinamide] |  |  |  | abrogated | reduced myofiber damage and oxidative stress, and improved muscle function
NC/C(=C\F)COc1ccc(OC(F)(F)F)cc1 [Compound 13] | < 0.01 | < 0.05 | < 0.3 |  | 
